Data published in patent publication US20100279935A1, “COMPOSITIONS FOR INDUCING LABOR AND ASSOCIATED METHODS” (priority 2007, published 2010).
Entries after “also recorded” stand apart in the source; their conditions may differ.

Experiments:
Assay type in all cases: cell-based, human
[1] = system: myosin light chain phosphorylation (Ser19) in hTERT cells; experiment: Western blot for phosphorylated myosin light chain at Ser19
Procedure: (§1) Telomerase immortalized myometrial cells (hTert) were maintained in DMEM/F12 (Mediatech) medium with 10% FBS (Hyclone) with penicillin/streptomycin and gentamycin at 37° C. and 5% CO2. Cells were trypsinized at 90% confluency and plated in T175 cell culture flasks at a 1:5 dilution or 6 well plates at 20,000 cells per well. For pharmacological experiments cells were treated with iodo-melatonin (Tocris; USA), oxytocin (Sigma-Aldrich; USA) or cotreated as described in the Results. Pharmacological inhibitors, 4-phenyl-2-propionamidotetralin (4P-PDOT), a MT2R specific antagonist, the general PKC inhibitor C1, and the phospholipase C inhibitor, U73122 (all from Tocris) were applied as a pretreatment 1 hr prior to application of IMEL or OT. After treatment the cells were trypsinized, pelleted, washed in phosphate-buffered saline, and frozen at −20° C. until further analysis.
For in vitro investigations cultured hTERT cells were collected by trypsinization and gentle scraping. Cells were suspended in PBS and pelleted by centrifugation. Protein extraction was performed according to the method of Shearman and colleagues^15. Following electrophoretic separation on a 10% SDS-polyacrylamide gel, proteins were semi-dry blotted in buffer onto a Whatman PROTRAN Nitrocellulose membrane (Whatman; Germany). Molecular size markers (Amersham) were included. The membrane was incubated for 60 min at 20° C. in blocking buffer containing 5% milk powder before overnight incubation at 4° C. with anti-OTR, anti-MT2R (Santa Cruz Biotechnology), anti-Cx43 antiserum (Millipore) or anti-actin (Sigma) at a dilution of 1:1000 in blocking buffer. Following washing in buffer (20 mM Tris, pH 7.6+[…] NaCl+0.05% Tween-20), the membrane was incubated at 20° C. for 1 h with a peroxidase-conjugated affinity purified goat anti-rabbit immunoglobulin (Sigma) in a 1:2000 dilution. Chemiluminescent signals were then detected with the Pierce ECL Western Blotting Substrate (Pierce; USA) using CL-X Posure film (Pierce). Western blotting for phospho-myosin light chain kinase (Ser19) (Millipore) was performed with the following exceptions. Membranes were blocked with a 5% BSA/TBS solution for one hour. The primary antibody was diluted in TBS at a 1:500 dilution at 4° C. overnight with shaking. The goat anti-rabbit immunoglobulin was diluted 1:2000 in a 5% milk/TBST solution. Densitometric analysis was performed using AIS Image Analysis software (Ontario, Canada) of images acquired with a digital camera. Criterion for assessment of samples as immunonegative was the absence of a band after 1 hr of exposure. Western blots were repeated a minimum of three times to insure reproducibility.

[2] = system: hTERT myometrial smooth muscle cells; experiment: Myometrial cell contractility assay (collagen disk retraction); conditions: for effect of inhibitor on contractility of cells treated with OT, I-MEL or both: pretreatment 1 hr, 4P-PDOT 10 nM, C1 10 μM, U73122 concentration not given
Procedure: as §1
Myometrial cell contractility was assayed using a collagen disk retraction assay as described by Devost and Zingg^16 plating 10,000 hTERT cells per well. Samples were treated as described in the Results and each treatment was performed in triplicate. Myometrial cell contractility was quantified by capturing images of the fixed collagen disks with a digital camera and analyzing for total area using AIS Image Analysis Software (Ontario, Canada). The results were normalized to the cell-free control sample areas and expressed as a percentage of untreated control area.

[3] = system: connexin 43 mRNA in hTERT cells; experiment: Quantitative PCR of Cx43 mRNA; conditions: for effect of inhibitor on I-MEL-induced Cx43 expression: co-treatment with I-MEL (FIG. 3C)
Procedure: as §1
Cellular total RNA was extracted with the RNEasy® kit (QIAGEN; Valencia, Calif., USA) according to the manufacturer's protocol. The RNA concentration was measured with the Nanodrop® photometer and then reverse transcribed to cDNA by means of the iScript® reverse transcription system (Bio-Rad Laboratories; USA). Quantitative real-time PCR was performed on a Bio-Rad iCycler® using iQ SYBR Green Supermix® (Bio-Rad), together with 1 μl of sense and antisense primers ([…]) of the transcript of interest and 2 μl of template cDNA. The following thermal cycling parameters were used: initial heat activation of the DNA-polymerase was performed at 95° C. for 5 min. Thereafter 40 cycles at 95° C. (15 sec), 58° C. (30 sec), and 72° C. (30 sec) were run. After thermocycling the iCycler performs an automatic melting curve, which entails cooling to 55° C. for 10 sec and then increasing temperatures in 0.2° C. increments up to 90° C. This controls for primer-dimer formation and other nonspecific effects. Quantification of the data was achieved by the Bio-Rad iCycler software using a standard curve from a primer-specific dilution series for the PCR product. Data were normalized against expression of the housekeeping gene glyceraldehyde-3-phosphate dehydrogenase (GAPDH). The primer sequences used for Cx43, and GAPDH quantification are as follows: […]

[4] = system: gap junction communication in hTERT cells; experiment: Lucifer yellow dye migration (scrape loading) assay
Procedure: Lucifer yellow scrape loading assays were performed in accordance with the procedures of El-Fouly et al^17. Cells were grown to confluency in […] cell culture dishes, washed with warm phosphate buffered saline (PBS) and treated with 2 mL of pre-warmed 0.05% lucifer yellow in PBS solution. The cells were then scraped by drawing a scalpel across the plate. After two minutes at room temperature the plates were washed three times with prewarmed PBS and returned to normal medium. The plates were then photographed at 10 minutes after scraping using a digital camera through a Zeiss Axiovert 40CFL Microscope at a 100× and 200× magnification. Each treatment condition was repeated three times to ensure reproducibility.

[5] = system: connexin 43 protein in hTERT cells; experiment: Western blot of Cx43 protein; conditions: I-MEL-treated hTERT cells (FIG. 3B)
Procedure: as §1
For in vitro investigations cultured hTERT cells were collected by trypsinization and gentle scraping. Cells were suspended in PBS and pelleted by centrifugation. Protein extraction was performed according to the method of Shearman and colleagues^15. […] Chemiluminescent signals were then detected with the Pierce ECL Western Blotting Substrate (Pierce; USA) using CL-X Posure film (Pierce). […]

`CCC(=O)NC1Cc2ccccc2C(c2ccccc2)C1` (centres unmarked) [4P-PDOT, 4-phenyl-2-propionamidotetralin] was tested, and the “effect of inhibitor pretreatment on I-MEL-induced myosin light chain phosphorylation” value ([1]; 10 nM 4P-PDOT or 10 μM C1 pretreatment) was “abolished”, the “effect of inhibitor on contractility of cells treated with OT, I-MEL or both” value [2] was “reduced the synergistic effect of I-MEL to levels corresponding to treatment with OT alone” and the “effect of inhibitor on I-MEL-induced Cx43 expression” value [3] was “abolished the effect of I-MEL on Cx43 expression”. The “effect of inhibitor pretreatment on I-MEL-increased dye spread” value ([4]; 10 nM 4P-PDOT or 10 μM C1 before I-MEL) was “blocked” and the “dye migration, inhibitor alone” value ([4]; 4P-PDOT or C1 alone, data not shown) was “dye migration comparable to control levels”.

For `CC[C@H](C)[C@@H]1NC(=O)[C@H](Cc2ccc(O)cc2)NC(=O)[C@@H](N)CSSC[C@@H](C(=O)N2CCC[C@H]2C(=O)N[C@@H](CC(C)C)C(=O)NCC(N)=O)NC(=O)[C@H](CC(N)=O)NC(=O)[C@H](CCC(N)=O)NC1=O` [OT, oxytocin], the “myosin light chain phosphorylation, OT treatment” value ([1]; OT, hTERT cells (FIG. 2D)) was “increases”.

For `COc1ccc2[nH]c(I)c(CCNC(C)=O)c2c1` [I-MEL, iodo-melatonin], the “effect of I-MEL on OT-induced myosin light chain phosphorylation” value ([1]; 1 nM I-MEL with OT, hTERT cells (FIG. 2D)) was “increased dramatically”, the “myosin light chain phosphorylation, I-MEL treatment alone” value ([1]; 1 nM I-MEL, hTERT cells (FIG. 2D)) was “modest increases in myosin light chain phosphorylation” and the “increase in contractility compared to treatment with OT alone” value ([2]; co-treatment 1 nM I-MEL and 1 nM OT, hTERT cells) was “two-fold”. The “contractility by I-MEL alone” value ([2]; hTERT cells, I-MEL without OT) was “modest increases in hTERT contractility”, the “effect of I-MEL on OT-induced contractility and sensitivity to OT” value ([2]; hTERT cells, OT co-treated with I-MEL (FIG. 2A)) was “increase OT-induced contractility in a dose dependent manner” and the “Cx43 mRNA levels after 4 hrs” value ([3]; 1 nM I-MEL, 4 hrs, hTERT cells) was “significant, but transient increases; also recorded: elevated”. For the same compound, the “Cx43 mRNA levels after 8 hrs” value ([3]; 1 nM I-MEL, 8 hrs, hTERT cells) was “returned to untreated levels”, the “cell coupling / spread of lucifer yellow dye” value ([4]; 1 nM I-MEL pretreated hTERT cells, 10 minutes after scrape loading) was “increased levels of cell coupling” and the Cx43 protein levels [5] was “upregulation of Cx43 protein levels”.

In the case of `COc1ccc2c(c1)CC[C@@H]1[C@@H]2CC[C@]2(C)[C@@H](NCCCCCCN3C(=O)C=CC3=O)CC[C@@H]12` [U73122], the “effect of inhibitor on contractility of cells treated with OT, I-MEL or both” value [2] is reported as “completely abolished contractility” and the “effect of inhibitor on I-MEL-induced Cx43 expression” value [3] is reported as “abolished the effect of I-MEL on Cx43 expression”.
